Reference: ChEMBL document CHEMBL3751724, “Bioactive lignan derivatives from the stems of Firmiana simplex” (Bioorg Med Chem Lett, 2016)
pIC50: −log10 of the molar value.

Columns and labels:
[1] = Cytotoxicity against LPS-stimulated mouse BV2 cells assessed as cell viability at 20 uM by MTT assay relative to control; format: cell-based, BV-2; conditions: read-out: Activity
[2] = Antineuroinflammatory activity in mouse BV2 cells assessed as inhibition of LPS-induced nitric oxide production after 24 hrs by Griess assay; format: functional, cell-based; conditions: BV-2, 24 h

| SMILES | viability at 20 µM [1] | pIC50 [2] |
| --- | --- | --- |
| COc1cc(C(O)C(CO)Oc2c(OC)cc([C@@H]3Oc4c(OC)cc(/C=C/C=O)cc4[C@H]3CO)cc2OC)ccc1O (stereo partly drawn) | 129% | 4.82 |
| Oc1ccc([C@@H]2OC[C@H]3[C@H](c4ccc5c(c4)OCO5)OC[C@@]23O)cc1 | 109% | 4.45 |
| COc1cc(C(OC)[C@H]2CO[C@H](c3ccc(O)c(OC)c3)[C@H]2CO)ccc1O (stereo partly drawn) | 115% | 4.48 |
| COc1cc([C@@H]2OC[C@@H]3[C@H]2CO[C@H]3c2cc(OC)c(O)c(OC)c2)cc(OC)c1O | 110% | 4.56 |
| COc1cc(/C=C/CO)ccc1O[C@H](CO)[C@@H](O)c1cc(OC)c(O)c(OC)c1 (relative stereo) | 123% | 5.04 |
| COc1cc([C@@H](O)[C@@H](CO)Oc2ccc(/C=C/CO)cc2OC)ccc1O (relative stereo) | 117% | 4.49 |
| COc1cc([C@@H](O)[C@@H](CO)Oc2ccc(/C=C/C=O)cc2OC)ccc1O | 123% | 5.98 |
| c1cc2c(cc1[C@@H]1OC[C@@H]3[C@H]1CO[C@H]3c1ccc3c(c1)OCO3)OCO2 | 126% | 4.58 |
| COc1cc([C@@H](O)[C@@H](CO)Oc2c(OC)cc(/C=C/CO)cc2OC)ccc1O (relative stereo) | 120% | 4.63 |
| COc1cc([C@@H]2OC[C@@H]3[C@H]2CO[C@H]3c2ccc3c(c2)OCO3)ccc1O [PIPERITOL] | 113% | 4.49 |
| COc1cc([C@@H](O)[C@H](CO)Oc2c(OC)cc([C@@H]3OC[C@H]4[C@H](c5ccc(O)c(OC)c5)OC[C@@]34O)cc2OC)ccc1O | 108% | < 3.30 |
| COc1cc([C@H](O)[C@@H](CO)Oc2ccc(/C=C/C=O)cc2OC)ccc1O | 129% | 6.03 |
| COc1cc([C@@H]2OC[C@@H]3[C@H]2CO[C@H]3c2ccc(O)c(OC)c2)ccc1O [(+)-PINORESINOL] | 115% | 4.60 |
| COc1cc([C@@H]2Oc3c(OC)cc(/C=C/C=O)cc3[C@H]2CO)cc(OC)c1O | 120% | 5.00 |
| COc1cc([C@@H](O)[C@@H](CO)Oc2ccc(C=O)cc2OC)ccc1O (relative stereo) | 116% | 4.32 |
| COc1cc([C@@H]2OC[C@@]3(O)[C@H](c4ccc5c(c4)OCO5)OC[C@@H]23)ccc1O (relative stereo) | 108% | < 3.30 |
| COc1cc([C@@H]2Oc3c(OC)cc(/C=C/C=O)cc3[C@H]2CO)ccc1O | 115% | 5.15 |
| COc1cc(C(O)C(CO)Oc2c(OC)cc([C@@H]3OC[C@@H]4[C@H]3CO[C@H]4c3ccc(O)c(OC)c3)cc2OC)ccc1O (stereo partly drawn) | 121% | 4.71 |
| COc1cc([C@H]2OC[C@H]3[C@@H]2CO[C@@H]3c2ccc(O)c(OC)c2)ccc1O | 111% | 4.51 |
